Literature values, collected in US9095607B2, “Gel for topical application of clove essential oil with broad spectrum anti-inflammatory action and method of preparing same” (priority 2013, dated 2015).

Structure (SMILES)	LPS-induced NF-kB activation (NF-kB)	LPS-induced neutrophil migration (neutrophil migration)	in vivo up-regulation of kinin B1 receptors (kinin B1 receptors)
C=C1CC/C=C(\C)CC[C@@H]2[C@@H]1CC2(C)C [Beta-caryophyllene]	inhibit	inhibit	–
C/C1=C\CC/C(C)=C/CC(C)(C)/C=C/C1 [Alpha-humulene]	inhibit	inhibit	ability to prevent
